According to US10800815B2, “Kv1.3 potassium channel antagonists” (cgtx-Peptide Development GmbH, priority 2014, dated 2020):

How the values were obtained:
[1] = system: antigen induced arthritis (AIA); experiment: Antigen induced arthritis (AIA) rat model, knee joint swelling; format: in vivo; settings: for reduction of knee swelling relative to the vehicle control group: 24 h after arthritis induction; for difference of absolute increase of knee swelling (induced minus un-induced knee): one day after arthritis induction
[2] = system: white blood cells in peripheral blood; experiment: Haematology (WBC, neutrophil granulocytes, lymphocytes) in AIA rats; format: in vivo, rat
Protocol: For the blood withdrawal the animals were narcotized briefly, the tail was disinfected and the tail vein was punctured with a cannula, 50 μl of blood were withdrawn with a heparin coated pipette and mixed with 5 μl of a stabilising agent (CPD) and 1 μl heparin (1.5 U/μl diluted 1:4 in 0.9% NaCl).
White Blood Cells (WBC) were counted with a Coulter Counter in the automatic mode.
Blood samples were taken regularly for monitoring of hematological parameters. Haematological parameters were assessed in all animals weekly before induction, at day of induction and 10 days after induction (days −21, −14, −7, 0 and 10). […] Absolute counts of white blood cells (WBC), neutrophil granulocytes and lymphocytes were analyzed among others, the last two also stated in percentage of total WBC. EDTA whole blood of seven individuals from both vehicle and cgtx-544 peptide therapy group was measured with Sysmex XT-2000i.
For screening the state of health of all individuals, complete haemograms were used again. EDTA whole blood of seven individuals from both MTX high-dose and low-dose therapy groups were measured with Sysmex XT-2000i.V weekly before induction, at day of induction and 4 and 7 days after induction (day −21, −14, −7, 0, 4 and 7; MTX low-dose therapy group additionally on day −3, when i.v. application started).

Kv1.1 = biological target: T1, Kv1.1 (Homo sapiens, UniProt Q09470); experiment: Patchliner electrophysiology on Kv1.1 in Baculovirus infected Sf21 cells (Example 8); format: cell-based
T1 construct: expressed in transfected cells; host or cells: Sf21 insect cells, baculovirus infection
Protocol: (§1) Ion channels were expressed via Baculovirus (Kv1.1-, Kv1.3- and Kv1.5-constructs) infected Sf21 cells or stably transfected CHO cells (Kv1.2) as described in Examples 1, 2, and 4. Electrophysiological analysis was performed on the automated patch clamp device “Patchliner” (Nanion Technologies, Munich, Germany). The Patchliner is based on a planary patch clamp method borosilicate glass chip (NPC-16) instead of a glass pipettes. The Patchliner is able to record four cells at the same time. All channel recordings were made in the whole cell mode. Data recordings were performed with the PatchMaster software (HEKA Electronics, Lambrecht/Pfalz, Germany). Visualization of experimental results was realized with IGOR software (Wavemetrics, USA). Average data are presented as mean±standard error of the mean (SEM).
(§2) Test compounds were used as concentrated stock solutions (mostly 1.5 μg/μl). Stock solutions were diluted in buffer to the required final concentrations.

Kv1.3 [3] = biological target: T2, Kv1.3 (Homo sapiens, UniProt P22001); experiment: Decay of cgtx-544(Sing) in human blood serum at 37° C., blocking activity on Kv1.3 (Example 9); format: in vitro ADME
Protocol: FIG. 33 Decay of cgtx-544(Sing) in human serum at 37° C. A known amount of cgtx-544(Sing) was added to human blood serum from 3 blood donors and incubated at 37° C. for a period of 57 days. The blocking activity of the peptide was measured on Kv1.3 channels over this period. The peptide remains stable for 16 h, and it can still be detected after 45 days. At 57 days the blocking effect is no longer visible. Decay is depicted as the reduction of concentration of cgtx-544 (Sing) as determined by: C(t)=IC50 (t0)/IC50(t).C0. The decay is fitted by a simple decay curve: C (t)=C0.2(−t/t1/2), where C0 is the initial concentration of peptide in solution, t0 is the 0 min incubation at 37° C. point, and t1/2 is the half-life.
Further to the experiments described in Example 3, the stability of the cgtx-544 peptide was tested in blood serum samples under in vitro conditions. Thus, the stability of cgtx-544(Sing) in human blood serum was determined by the addition of a known quantity of cgtx-544(Sing) to human blood serum and a subsequent incubation at 37° C. The blocking activity of ctx-544(Sing) was measured on Kv1.3 channels over a period of 57 days. cgtx-544(Sing) is extremely stable in human blood serum. Its activity remains constant for at least 16 hours, and decays slowly until no more peptide blocking effect is detectable after 57 days.

Kv1.2 = biological target: T3, Kv1.2 (Homo sapiens, UniProt P16389); experiment: Patchliner electrophysiology on Kv1.2 in stably transfected CHO cells (Example 8); format: cell-based
T3 construct: expressed in transfected cells; host or cells: CHO cells, stably transfected
Protocol: as §1, §2

Kv1.3 [4] = biological target: T2, Kv1.3; experiment: Kv1.3 block with prolonged incubation times; format: cell-based; settings: incubation about 20 min, after folding and purification
Kv1.3 [5] = biological target: T2, Kv1.3; experiment: Patchliner electrophysiology of cgtx-544(Sing) on Kv1.3 in Baculovirus infected Sf21 cells (Example 8); format: cell-based
Protocol: as §1, §2
After chemical synthesis (see Example 7) the peptide was folded by oxidation with atmospheric oxygen and the correctly folded (biologically active) peptide fraction was purified by preparative HPLC. This purified cgtx-544 peptide was designated cgtx-544(Sing) for singular peak.

in vivo = format: in vivo; settings: rat
Protocol: FIG. 34 Decrease of cgtx-544(Sing) in the serum of treated rats after i.v. injection. The concentration of unbound circulating cgtx-544(Sing) was calculated on the basis of a standard curve. Standard error of the mean is depicted in the error bars (n=6).
Rats received i.v. injections of cgtx-544(Sing) (750 μg/kg BW). Blood was withdrawn at time points 0, 1, 10 and 60 minutes. Subsequently, serum was prepared from blood samples. The cgtx-544 content in these samples was analyzed electrophysiologically by measuring the blocking effect on Kv1.3 channels expressed in CHO cells. […] In order to study the amount of unbound cgtx-544(Sing) in the rat, the amount of cgtx-544(Sing) present in the circulating blood at the time points referred above was calculated through a calibration curve. This calibration curve was obtained by adding known quantities of cgtx-544(Sing) to blood serum and subsequent electrophysiological measurements on Kv1.3 channels. The block of Kv1.3 currents by these spiked samples was similar to that obtained with cgtx-544(Sing) in the absence of serum (data not shown).

[6] = Solubility and stability in 0.9% NaCl solution; format: physicochemical
Protocol: This peptide solution is being folded by oxidation (formation of disulfide bonds). The folding method is based on bond formation in phosphate buffer at pH 8.3 in the presence of atmospheric oxygen. […] Thus, after the folding reaction the active peptide (retention time 12.77 min) was purified from the cgtx-544 mixture of folded and partially folded peptides by preparative HPLC. After this purification step the active peptide—referred to as cgtx-544(Sing)—usually has an estimated purity of more than 95%.

Kv1.5 = biological target: T4, Kv1.5 (Homo sapiens, UniProt P22460); experiment: Patchliner electrophysiology on Kv1.5 in Baculovirus infected Sf21 cells (Example 8); format: cell-based; settings: 10 μM solution
T4 construct: expressed in transfected cells; host or cells: Sf21 insect cells, baculovirus infection

[7] = high-dose 1 mg/kg 1× weekly s.c.
[8] = low-dose 100 μg/kg 1× daily i.v.
[9] = high-dose 1 mg/kg 1× weekly s.c., day 7
[10] = high-dose 1 mg/kg 1× weekly s.c., day −7
[11] = high-dose 1 mg/kg 1× weekly s.c., seven days after induction
[12] = low-dose 100 μg/kg 1× daily i.v., day 7

T2 sequence (P22001 whole entry): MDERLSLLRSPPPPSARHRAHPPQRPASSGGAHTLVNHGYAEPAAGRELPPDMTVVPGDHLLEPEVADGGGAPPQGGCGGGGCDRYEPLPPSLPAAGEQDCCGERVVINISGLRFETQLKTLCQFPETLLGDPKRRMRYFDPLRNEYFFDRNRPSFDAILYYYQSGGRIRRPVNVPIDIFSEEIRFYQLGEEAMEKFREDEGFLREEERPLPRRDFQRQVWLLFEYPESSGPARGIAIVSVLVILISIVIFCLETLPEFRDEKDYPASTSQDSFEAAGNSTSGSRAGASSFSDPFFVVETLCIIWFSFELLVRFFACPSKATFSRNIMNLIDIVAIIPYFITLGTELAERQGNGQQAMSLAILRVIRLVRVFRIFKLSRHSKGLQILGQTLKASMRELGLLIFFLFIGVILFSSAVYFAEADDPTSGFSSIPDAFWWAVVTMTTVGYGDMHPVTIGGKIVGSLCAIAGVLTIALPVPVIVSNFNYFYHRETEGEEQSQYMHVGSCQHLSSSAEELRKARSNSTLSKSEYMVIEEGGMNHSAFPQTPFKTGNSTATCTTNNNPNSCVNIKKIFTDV
T3 sequence (P16389 whole entry): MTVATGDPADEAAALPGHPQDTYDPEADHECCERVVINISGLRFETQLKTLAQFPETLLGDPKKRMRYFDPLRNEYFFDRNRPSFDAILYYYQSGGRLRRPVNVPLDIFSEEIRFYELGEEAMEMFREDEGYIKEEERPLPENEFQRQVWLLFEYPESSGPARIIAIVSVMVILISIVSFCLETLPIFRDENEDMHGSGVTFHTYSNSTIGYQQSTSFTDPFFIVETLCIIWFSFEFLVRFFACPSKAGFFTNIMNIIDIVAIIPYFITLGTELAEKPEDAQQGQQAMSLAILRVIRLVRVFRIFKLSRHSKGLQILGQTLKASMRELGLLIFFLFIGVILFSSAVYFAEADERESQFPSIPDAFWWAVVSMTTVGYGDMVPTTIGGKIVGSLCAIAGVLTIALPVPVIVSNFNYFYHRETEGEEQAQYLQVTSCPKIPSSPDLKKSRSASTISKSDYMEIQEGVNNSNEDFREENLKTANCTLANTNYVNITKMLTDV
T4 sequence (P22460 whole entry): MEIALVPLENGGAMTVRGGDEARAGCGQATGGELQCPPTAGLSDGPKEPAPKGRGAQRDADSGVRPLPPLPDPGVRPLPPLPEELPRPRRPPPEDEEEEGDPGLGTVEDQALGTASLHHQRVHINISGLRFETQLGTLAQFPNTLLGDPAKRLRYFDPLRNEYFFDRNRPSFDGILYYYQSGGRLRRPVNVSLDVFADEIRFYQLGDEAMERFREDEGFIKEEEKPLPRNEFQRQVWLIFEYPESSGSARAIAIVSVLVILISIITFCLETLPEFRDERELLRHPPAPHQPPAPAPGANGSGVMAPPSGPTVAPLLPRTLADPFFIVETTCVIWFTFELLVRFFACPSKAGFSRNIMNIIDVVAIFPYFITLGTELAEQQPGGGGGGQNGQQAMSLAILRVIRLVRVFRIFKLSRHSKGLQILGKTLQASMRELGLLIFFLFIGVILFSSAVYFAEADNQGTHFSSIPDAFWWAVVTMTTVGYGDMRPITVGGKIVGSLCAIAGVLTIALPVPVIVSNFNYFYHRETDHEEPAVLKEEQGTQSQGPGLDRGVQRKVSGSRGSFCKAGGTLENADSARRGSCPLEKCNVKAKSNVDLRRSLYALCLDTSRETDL
T1 sequence (Q09470 whole entry): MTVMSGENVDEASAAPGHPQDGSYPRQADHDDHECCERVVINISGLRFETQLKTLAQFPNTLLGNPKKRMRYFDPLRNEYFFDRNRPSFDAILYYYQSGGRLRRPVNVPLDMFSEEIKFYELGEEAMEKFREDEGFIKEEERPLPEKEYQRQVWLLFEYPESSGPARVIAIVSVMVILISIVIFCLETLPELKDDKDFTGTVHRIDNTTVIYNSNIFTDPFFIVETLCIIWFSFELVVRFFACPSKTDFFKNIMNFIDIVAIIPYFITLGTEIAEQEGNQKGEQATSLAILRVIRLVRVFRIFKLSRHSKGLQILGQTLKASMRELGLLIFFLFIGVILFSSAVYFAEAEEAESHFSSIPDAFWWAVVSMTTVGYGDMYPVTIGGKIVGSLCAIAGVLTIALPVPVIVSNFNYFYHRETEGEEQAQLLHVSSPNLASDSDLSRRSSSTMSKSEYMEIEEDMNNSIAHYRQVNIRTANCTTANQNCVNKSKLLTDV

## CN(Cc1cnc2nc(N)nc(N)c2n1)c1ccc(C(=O)N[C@@H](CCC(=O)O)C(=O)O)cc1 [MTX, Methotrexate]
[1]; [7]
  relative difference of knee swelling (normalized): 0.39±0.16
  reduction of knee swelling relative to the vehicle control group: 15%
  difference of absolute increase of knee swelling (induced minus un-induced knee): 3.17±1.26 mm
[1]; [8]
  relative difference of knee swelling (normalized): 0.43±0.11
  reduction of knee swelling relative to the vehicle control group: 7%
  difference of absolute increase of knee swelling (induced minus un-induced knee): 3.45±0.87 mm
[2]; [9]
  WBC count: 14.68±2.15 ×10^3/μl
  absolute lymphocyte count: 11.38±1.15 ×10^3/μl
  lymphocyte percentage: 78.16±7.20 % of WBC
[2]; [10]
  WBC count: 20.79±5.96 ×10^3/μl
  absolute lymphocyte count: 11.68±2.8 ×10^3/μl
  absolute neutrophil granulocyte count: 7.54±3.19 ×10^3/μl
  lymphocyte percentage: 57.01±6.45 % of WBC
  relative neutrophils: 35.46±7.08 % of WBC
[2]; [11]
  absolute neutrophil granulocyte count: 1.94±1.1 ×10^3/μl
  relative neutrophils: 12.63±6.1 % of WBC
[2]; [12]
  WBC count: 6.63±1.37 ×10^3/μl
  absolute lymphocyte count: 6.14±1.11 ×10^3/μl
  absolute neutrophil granulocyte count: 0.33±0.36 ×10^3/μl
  decrease of WBC counts compared to the beginning of the experiment: ~50%
  lymphocyte percentage: 93.13±4.66 % of WBC
  relative neutrophils: 4.41±4.63 % of WBC
[2]; low-dose treated individuals, seven days after arthritis induction
  effect in the haemogram compared to the vehicle control group: reduction of WBC count, neutrophil granulocyte count and lymphocyte count

## CC[C@H](C)[C@H](NC(=O)[C@@H](N)[C@@H](C)O)C(=O)N[C@H](C(=O)N[C@@H](CC(N)=O)C(=O)N[C@H](C(=O)N[C@@H](CCCCN)C(=O)N[C@H]1CSSC[C@@H]2NC(=O)[C@H](CCCCN)NC(=O)CNC(=O)[C@H](Cc3ccc(O)cc3)NC(=O)[C@@H]3CCCN3C(=O)[C@@H]3CSSC[C@@H](C(=O)O)NC(=O)[C@H](CCCNC(=N)N)NC(=O)[C@H](CC(N)=O)NC(=O)[C@@H]4CSSC[C@H](NC(=O)[C@@H]5CCCN5C(=O)[C@@H]5CCCN5C(=O)[C@H](CC(C)C)NC(=O)[C@H](CSSC[C@H](NC(=O)[C@H](CCCCN)NC(=O)[C@H](CCCNC(=N)N)NC(=O)[C@H](CC(N)=O)NC(=O)[C@H](CCSC)NC2=O)C(=O)N[C@@H](CCCCN)C(=O)N4)NC(=O)[C@H](CCC(N)=O)NC(=O)[C@H](CCCCN)NC(=O)[C@@H]2CCCN2C(=O)[C@H](CO)NC(=O)[C@H]([C@@H](C)O)NC1=O)C(=O)N[C@@H](CCCCN)C(=O)N[C@@H](C)C(=O)N[C@@H](CCC(N)=O)C(=O)N[C@@H]([C@@H](C)O)C(=O)NCC(=O)N3)C(C)C)[C@@H](C)CC [cgtx-544(Sing)]
Kv1.1
  IC50: ~6 µM
Kv1.3 [3]; human blood serum, 37° C.
  time after which the peptide can still be detected: 45 days
  time at which blocking effect is no longer visible: 57 days
Kv1.3 [3]; human serum at 37° C.
  period for which 50% activity was retained: 5 days
Kv1.2
  IC50: 2500 nM
Kv1.2; 100 nM solution, stably transfected CHO cells
  effect on Kv1.2 currents: did not alter
Kv1.2; concentrations >1 μM
  effect on Kv1.2 currents: only slightly reduced currents
Kv1.3 [4]
  IC50: ~0.9 nM
Kv1.3 [5]
  IC50: 6.9 nM
In vivo; in vivo, iv, 750 ug/kg, 750 μg/kg BW
  half-life: ~26 min
In vivo; 750 μg/kg BW i.v., 60 minutes
  blocking activity of serum sample relative to the 1 minute sample: 10%
In vivo; i.v., 750 μg/kg BW
  approximate concentration in the circulating blood: ~62 nM
[6]; 0.9% NaCl solution
  solubility: highly soluble
[6]; 0.9% NaCl solution at RT and 4° C.
  stability in solution: up to several weeks
Kv1.5
  reduction of Kv1.5 currents: did not induce a significant reduction
